Patent US20160339022A1, “TREATMENT OF NEUROBLASTOMA WITH HISTONE DEACETYLASE INHIBITORS” (Acetylon Pharmaceuticals Inc., priority 2015, published 2016)

Tests used:
neuroblastoma cells [1] = settings: MTS assay, FIGS. 27 and 28
Experimental: Viable cells were measured in an MTS assay and the combination index (CI) was calculated using the Chou-Talaay method.

SK-N-BE2 cells = assay: Levels of proteins related to cell-cycle progression; format: cell-based; settings: 3 days in culture
Experimental: The levels of proteins related to cell-cycle progression were assessed following treatment (SK-N-BE2 cells; 3 days in culture) with DMSO (control), Compound B alone, ATRA alone, and Compound B in combination with ATRA. p21 is increased by ATRA and enhanced by Compound B. Cyclin D1 is decreased in the combination setting relative to ATRA as a single agent. CDK2 and CDK4 are decreased in the combination setting with Compound B and ATRA.

AKT and c-RAF = assay: Levels of AKT and c-RAF; format: cell-based; settings: SK-N-BE2 cells; 3 days in culture
Experimental: The levels of AKT and c-RAF were assessed following treatment (SK-N-BE2 cells; 3 days in culture) with DMSO (control), Compound B alone, ATRA alone, and Compound B in combination with ATRA. Activated AKT is increased by ATRA and reduced in the combination setting with Compound B. Compound B as a single agent, and in combination with ATRA, decreases cRAF phosphorylation at residue Ser259.

neuroblastoma cells [2] = assay: Morphology changes / dendrite outgrowth by inverted microscope; format: cell-based; settings: 3, 5 and 7 days
Experimental: Cells were cultured for 3, 5, and 7 days with the indicated treatments. Images were captured on an inverted microscope.

SK-N-BE(2) cells [3] = assay: Cell viability (Promega CellTiter Glo assay); format: cell-based
Experimental: (§1) Cells were cultured for 48 hours at the indicated concentration of drug, and then cell viability was measured by Promega CellTiter Glo assay and caspase activity was measured by Promega Caspase3/7 Glo assay. […] Anti-tumor activity is evident at 3 μM of treatment.

neuroblastoma cells [4] = assay: Cell cycle analysis (Click-iT EdU and FxCycle PI/RNase staining); format: cell-based; settings: 7 days
Experimental: Cells were cultured for 7 days with the indicated treatments and then stained with the Invitrogen Click-iT EdU kit and the Invitrogen FxCycle […] kits to assess frequency of cells in each stage of the cell cycle. […] The effect is enhanced by Compound B in a dose dependent manner.
In combination with ATRA, the effect on p21 is enhanced at concentrations that induce gene expression changes consistent with differentiation. At 7 days of treatment, combination effects are observed on the cell cycle, with a decreasing frequency of s-phase cells and an increasing sub-G1 population (FIG. 6B). […] EDU is increased in cells in s-phase while PI intensity indicates relative levels of DNA. Using these metrics, we illustrate the frequency of cells in the indicated states of the cell cycle.

[5] = test system: retinoic acid receptor (RAR); assay: Retinoic acid receptor ChIP-seq; format: cell-based; settings: 3 μM Compound B, 48 hours
Excerpt: Retinoic acid receptor active binding sites defined in any individual treatment group by ChIP-seq at 48 hrs after treatment were stacked (y-axis) and aligned to the center of the binding peak (x-axis) (FIG. 13). […] Many of the genes found near region 1 binding sites are involved in regulation of retinoid signaling and are transcription factors that drive differentiation (Table 10).
Regions 1-7 of FIG. 13 are defined relative to DMSO: 1, [Combo] Increased; 2, [ATRA] Increased; 3, [ATRA] [Combo] Increased; 4, [Combo] [ATRA] [Compound B] Increased; 5, [Combo] [ATRA] Decreased; 6, [Compound B] Decreased; and 7, [Compound B] [Combo] [ATRA] Decreased.
Neuroblastoma cell line SK-N-BE(2) cells were treated with 3 μM Compound B, 1 μM ATRA, or a combination of both at 37° C. over 48 hours and compared to the solvent (DMSO) control. Antibodies to pan-retinoic acid receptor were used to pull down DNA associated with the receptor binding and sequenced. Lists of binding regions were mapped to the chromosome and “associated” with a given gene if the binding region was located within 10,000 bp up- or down-stream of the gene in question. Binding regions were represented as a heatmap where the sites were stacked on the y-axis across treatments, the “0” mark on the x-axis is the center of the binding peak and the intensity of signal indicated by color. The bracketed regions are areas of statistical significance relative to the DMSO control as indicated on the plot.
Table 12 lists the genes returned when the following conditions are met: 1) combo peak height >4 fold relative to the DMSO control group, and 2) combo expression >4 fold relative to the DMSO control group.

SK-N-BE(2) cells [6] = assay: Microarray gene expression and gene set enrichment analysis; format: cell-based, Homo sapiens; settings: 3 μM Compound B, 1 μM ATRA or combination, microarray 48 hr, fold relative to the DMSO control group
Experimental: Gene expression from cells treated with ATRA single agent and combination of ATRA and HDAC1/2i were assessed at 2 hrs and 48 hrs of treatment (FIG. 12A). […] A function analysis of the data using the Ingenuity IPA platform was performed by Qiagen; overlap is observed in the top hits between treatment groups.
Genes that statistically increase over 2-fold relative to the DMSO control were mapped on a Venn diagram (FIG. 12B).
Neuroblastoma cell line SK-N-BE(2) cells were treated with 3 μM Compound B, 1 μM ATRA, or a combination of both at 37° C. over 2 hours (FIG. 12A) or 48 hours (FIG. 12B) and compared to the solvent (DMSO) control.

SK-N-BE(2) cells [7] = assay: Caspase activity (Promega Caspase3/7 Glo assay); format: cell-based; settings: 1 μM, 48 hours
Experimental: as §1

neuroblastoma cells [8] = assay: Neuroblastoma proliferation, manual cell counts over 7 days; format: cell-based; settings: 0.75 μM and 2 μM, counted at days 3, 5 and 7
Experimental: Cells were cultured over a 7 day period and manually counted at days 3, 5, and 7.

HDAC2 = HDAC2 (Homo sapiens, UniProt Q92769); assay: Biochemical activity of isoform-selective HDAC inhibitors, HDAC2; settings: biochemical assay
Chain of HDAC2 (Q92769 whole entry, canonical isoform): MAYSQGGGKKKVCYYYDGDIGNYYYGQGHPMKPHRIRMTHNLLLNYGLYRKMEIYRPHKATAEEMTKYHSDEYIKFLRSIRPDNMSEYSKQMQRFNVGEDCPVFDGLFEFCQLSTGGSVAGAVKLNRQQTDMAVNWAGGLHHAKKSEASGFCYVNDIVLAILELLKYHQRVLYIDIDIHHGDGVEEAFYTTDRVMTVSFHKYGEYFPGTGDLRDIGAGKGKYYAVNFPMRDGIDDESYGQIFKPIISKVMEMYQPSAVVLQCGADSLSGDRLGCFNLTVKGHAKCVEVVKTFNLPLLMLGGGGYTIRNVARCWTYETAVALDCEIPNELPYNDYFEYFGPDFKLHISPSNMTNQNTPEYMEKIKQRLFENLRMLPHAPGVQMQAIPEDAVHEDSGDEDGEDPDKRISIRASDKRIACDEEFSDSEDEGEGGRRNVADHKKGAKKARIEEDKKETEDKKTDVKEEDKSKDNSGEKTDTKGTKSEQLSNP

HDAC1 = HDAC1 (Homo sapiens, UniProt Q13547); assay: Biochemical activity of isoform-selective HDAC inhibitors, HDAC1; settings: biochemical assay
Chain of HDAC1 (Q13547 whole entry, canonical isoform): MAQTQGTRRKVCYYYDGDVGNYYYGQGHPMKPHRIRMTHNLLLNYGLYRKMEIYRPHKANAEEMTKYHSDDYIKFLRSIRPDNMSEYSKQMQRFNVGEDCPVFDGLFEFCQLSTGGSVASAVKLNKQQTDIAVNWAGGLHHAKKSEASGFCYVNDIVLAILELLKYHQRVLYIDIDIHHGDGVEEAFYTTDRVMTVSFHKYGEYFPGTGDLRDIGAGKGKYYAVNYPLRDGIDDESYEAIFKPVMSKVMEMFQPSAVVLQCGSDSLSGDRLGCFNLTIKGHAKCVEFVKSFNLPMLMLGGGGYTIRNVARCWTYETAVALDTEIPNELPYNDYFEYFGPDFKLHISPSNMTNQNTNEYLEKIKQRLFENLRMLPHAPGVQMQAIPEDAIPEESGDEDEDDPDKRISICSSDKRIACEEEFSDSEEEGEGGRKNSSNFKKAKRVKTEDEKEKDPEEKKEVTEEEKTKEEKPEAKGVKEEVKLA

neuroblastoma cells [9] = assay: Long term growth assay (15, 20, 25 days, Crystal Violet); format: cell-based; settings: 1 μM of exposure, single agent; FIG. 11
Experimental: Cells were cultured for 15, 20 or 25 days with the indicated treatments. Cells were imaged on an inverted microscope at days 15 and 20. On day 25, the cells were stained with Crystal Violet dye and imaged by cell phone camera Importantly, the combination of ATRA and Compound B suppressed the growth of ATRA-resistant colonies.
Cells were cultured for 15, 20 or 25 days with the indicated treatments. Cells were imaged on an inverted microscope at days 15 and 20. On day 25, the cells were stained with Crystal Violet dye and imaged.
Cells were cultured for 15, 20 or 25 days with the indicated treatments. Cells were imaged on an inverted microscope at days 15 and 20. On day 25, the cells were stained with Crystal Violet dye and imaged. It was observed that the combination activity is mediated by HDAC1/2i.
Neuroblastoma cells were treated with Compound B or the HDAC3-selective inhibitor Compound C in a long term growth assay.

IMR-32 tumors = assay: IMR-32 neuroblastoma tumor growth in NUDE mice; format: in vivo; settings: IMR-32 tumors in NUDE mice, orally once daily, 5/2 on/off schedule
Experimental: IMR-32 tumors were implanted in NUDE mice and Compound E and retinoic acid was administered orally once daily at the indicated doses on a 5/2 on/off schedule.

[10] = SK-N-BE(2) cells, 1 μM ATRA or combination, fold relative to the DMSO control group

For `CC1=C(/C=C/C(C)=C/C=C/C(C)=C/C(=O)O)C(C)(C)CCC1` [ATRA, all-trans-retinoic acid, reference compound], the “cytotoxic effect on neuroblastoma cells as a single agent” value (neuroblastoma cells [1]) was “has a cytotoxic effect”, the p21 level (SK-N-BE2 cells) was “increased” and the “activated AKT” value (AKT and c-RAF) was “increased”. The “morphology / dendrite outgrowth” value (neuroblastoma cells [2]) was “caused the outgrowth of dendrites over time”, the “effect of added ATRA on HDAC1/2i mediated toxicity” value (SK-N-BE(2) cells [3]; addition of 1 μM or 3 μM of ATRA to Compound B, FIG. 2A) was “little effect” and the “cell cycle stage frequency, single agent” value (neuroblastoma cells [4]) was “reduces s-phase frequency and increases the sub-G1 population”. For the same compound, the “RAR Binding (Peak Height), ACSL3” value [5, 10] was 1.00, the “RAR Binding (Peak Height), ATP7A” value [5, 10] was 4.60 and the “RAR Binding (Peak Height), CDKN1A” value [5, 10] was 4.75. The “RAR Binding (Peak Height), CRABP2” value [5, 10] was 3.15, the “RAR Binding (Peak Height), CTSH” value [5, 10] was 5.42 and the “RAR Binding (Peak Height), CYP26A1” value [5, 10] was 7.00. The “RAR Binding (Peak Height), CYP26B1” value [5, 10] was 11.50, the “RAR Binding (Peak Height), DHRS3” value [5, 10] was 7.50 and the “RAR Binding (Peak Height), DUSP6” value [5, 10] was 4.00. The “RAR Binding (Peak Height), ETS1” value [5, 10] was 3.99, the “RAR Binding (Peak Height), HSPA5” value [5, 10] was 2.00 and the “RAR Binding (Peak Height), IER3” value [5, 10] was 6.83. For the same compound, the “RAR Binding (Peak Height), NFKBIZ” value [5, 10] was 4.00, the “RAR Binding (Peak Height), PCDH18” value [5, 10] was 3.50 and the “RAR Binding (Peak Height), PTGER2” value [5, 10] was 2.13. For the same compound, the “RAR Binding (Peak Height), RARB” value [5, 10] was 2.20, the “RAR Binding (Peak Height), RET” value [5, 10] was 8.86 and the “RAR binding to chromatin” value ([5]; SK-N-BE(2), 1 μM ATRA, vs DMSO) was “increased RAR binding”. For the same compound, the “Gene Expression Change, ACSL3” value (SK-N-BE(2) cells [6]) was 1.68, the “Gene Expression Change, ATP7A” value (SK-N-BE(2) cells [6]) was 4.30 and the “Gene Expression Change, CDKN1A” value (SK-N-BE(2) cells [6]) was 1.25. The “Gene Expression Change, CRABP2” value (SK-N-BE(2) cells [6]) was 12.15, the “Gene Expression Change, CTSH” value (SK-N-BE(2) cells [6]) was 2.40 and the “Gene Expression Change, CYP26A1” value (SK-N-BE(2) cells [6]) was 7.84. The “Gene Expression Change, CYP26B1” value (SK-N-BE(2) cells [6]) was 116.67, the “Gene Expression Change, DHRS3” value (SK-N-BE(2) cells [6]) was 24.14 and the “Gene Expression Change, DUSP6” value (SK-N-BE(2) cells [6]) was 8.59. The “Gene Expression Change, ETS1” value (SK-N-BE(2) cells [6]) was 3.50, the “Gene Expression Change, HSPA5” value (SK-N-BE(2) cells [6]) was 1.48 and the “Gene Expression Change, IER3” value (SK-N-BE(2) cells [6]) was 3.75. The “Gene Expression Change, NFKBIZ” value (SK-N-BE(2) cells [6]) was 2.85, the “Gene Expression Change, PCDH18” value (SK-N-BE(2) cells [6]) was 3.98 and the “Gene Expression Change, PTGER2” value (SK-N-BE(2) cells [6]) was 2.48. For the same compound, the “Gene Expression Change, RARB” value (SK-N-BE(2) cells [6]) was 3.91 and the “Gene Expression Change, RET” value (SK-N-BE(2) cells [6]) was 10.78.

In the case of `O=C(CCCCCCNC(=O)c1cnc(N(c2ccccc2)c2ccccc2Cl)nc1)NO` [Compound A, 2-((2-chlorophenyl)(phenyl)amino)-N-(7-(hydroxyamino)-7-oxoheptyl)pyrimidine-5-carboxamide], the “cytotoxic effect on neuroblastoma cells as a single agent” value (neuroblastoma cells [1]) is reported as “has a cytotoxic effect”, the “caspase 3/7 induction” value (SK-N-BE(2) cells [7]) is reported as “Minimal” and the “proliferation, single agent” value (neuroblastoma cells [8]) is reported as “can suppress proliferation similar to ATRA”. For the same compound, the cell death (SK-N-BE(2) cells [3]; 1 μM, 48 hours) was “Minimal” and the anti-tumor activity (SK-N-BE(2) cells [3]; 3 μM, 48 hours) was “evident”.

For `Nc1cc(F)ccc1NC(=O)c1cnc2c(C3CC3)c(N3CCNCC3)ccc2c1` [Compound C, N-(2-amino-4-fluorophenyl)-8-cyclopropyl-7-(piperazin-1-yl)quinoline-3-carboxamide], the IC50 (HDAC2) was 619 nM, the IC50 (HDAC1) was 2000 nM and the “neuroblastoma cell growth in long term growth assay” value (neuroblastoma cells [9]) was “required higher concentrations to mediate a similar effect”.

For `Nc1ccc(-c2cccs2)cc1NC(=O)c1ccc2nc(N3CCNCC3)ccc2c1` [Compound E], the tumor growth (IMR-32 tumors) was “dose-dependent trend toward reduced tumor growth”.
